What was measured:
[1] = test system: K562 (chronic myelogenous leukaemia); experiment: Effect of compounds on tumor cell lines (assay of Latham et al.), K562; type: cell-based; details: K562 cells, 96 hours after treatment, 1 μM to 100 μM; read-out: K 562 potency (IC50)
Method in brief: (§1)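 After 96 h of exposure to compound (1–100 μM in DMSO; one compound at 0.1–100 μM), effects were scored by inverted-microscope inspection, with trypan blue viable counts by hemacytometer when required. Cells were seeded at 2.5×10^4 per well and dosed 24 h after plating.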

[2] = test system: DU145 (prostate cancer); experiment: Effect of compounds on tumor cell lines (assay of Latham et al.), DU145; type: cell-based; details: DU145 cells, 96 hours after treatment, 1 μM to 100 μM; read-out: DU 145 potency (IC50)
Method in brief: as §1

SMILES | IC50 [1] | IC50 [2]
COc1ccccc1C=C(SCc1ccc(Cl)cc1)C(=O)c1ccc([N+](=O)[O-])cc1 [Example 200] | 1 to 10 µM | 10 to 25 µM
O=C(C(=Cc1ccc[nH]1)SCc1ccc(Cl)cc1)c1ccc(Cl)cc1 [Example 201] | 10 to 25 µM | 25 to 50 µM
Cc1cc(C)cc(C=C(SCc2ccc(Cl)cc2)C(=O)c2ccc(Cl)cc2)c1 [Example 202] | 10 to 25 µM | 10 to 25 µM
COc1ccc(C=C(SCc2ccc(Cl)cc2)C(=O)c2ccc(Br)cc2)cc1O [Example 203] | 1 to 10 µM | 1 to 10 µM
COc1ccc(C=C(SCc2ccc(Cl)cc2)C(=O)c2ccc(Cl)cc2)cc1O [Example 204] | ≤ 1 µM | 1 to 10 µM
Cc1ccsc1C=C(SCc1ccc(Cl)cc1)C(=O)c1ccc(Br)cc1 [Example 205] | 25 to 50 µM | 25 to 50 µM
Cc1ccsc1C=C(SCc1ccc(Cl)cc1)C(=O)c1ccc(Cl)cc1 [Example 206] | 50 to 100 µM | 50 to 100 µM
Cc1ccsc1C=C(SCc1ccc(Cl)cc1)C(=O)c1ccc([N+](=O)[O-])cc1 [Example 207] | > 100 µM | > 100 µM
CN(C)c1ccc(C=C(SCc2ccc(Cl)cc2)C(=O)c2ccc(Br)cc2)cc1 [Example 208] | 1 to 10 µM | 10 to 25 µM
CN(C)c1ccc(C=C(SCc2ccc(Cl)cc2)C(=O)c2ccc(C(=O)O)cc2)cc1 [Example 209] | 1 to 10 µM | 1 to 10 µM
CN(C)c1ccc(C=C(SCc2ccc(Cl)cc2)C(=O)c2ccc(Cl)cc2)cc1 [Example 210] | 10 to 25 µM | > 100 µM
CN(C)c1ccc(C=C(SCc2ccc(Cl)cc2)C(=O)c2ccc([N+](=O)[O-])cc2)cc1 [Example 211] | 50 to 100 µM | > 100 µM
O=C(C(=Cc1ccc(OCc2ccccc2)cc1)SCc1ccc(Cl)cc1)c1ccc(Cl)cc1 [Example 212] | 10 to 25 µM | 1 to 10 µM
O=C(O)c1ccc(C(=O)C(=Cc2ccc(Br)c([N+](=O)[O-])c2)SCc2ccc(Cl)cc2)cc1 [Example 213] | ≤ 1 µM | 1 to 10 µM
O=C(C(=Cc1ccc(Br)cc1)SCc1ccc(Cl)cc1)c1ccc(Br)cc1 [Example 214] | 1 to 10 µM | 1 to 10 µM
O=C(C(=Cc1ccc(Br)cc1)SCc1ccc(Cl)cc1)c1ccc(Cl)cc1 [Example 215] | 1 to 10 µM | 1 to 10 µM
O=C(O)c1ccc(C(=O)C(=Cc2ccc(Cl)c([N+](=O)[O-])c2)SCc2ccc(Cl)cc2)cc1 [Example 216] | ≤ 1 µM | 1 to 10 µM
O=C(C(=Cc1ccc(Cl)cc1)SCc1ccc(Cl)cc1)c1ccccc1Cl [Example 217] | 1 to 10 µM | 50 to 100 µM
O=C(C(=Cc1ccc(Cl)cc1)SCc1ccc(Cl)cc1)c1ccc(Br)cc1 [Example 218] | 1 to 10 µM | 10 to 25 µM
O=C(C(=Cc1ccc(O)c([N+](=O)[O-])c1)SCc1ccc(Cl)cc1)c1ccc(Cl)cc1 [Example 220] | 10 to 25 µM | 10 to 25 µM
O=C(C(=Cc1ccc(O)cc1)SCc1ccc(Cl)cc1)c1ccc(Br)cc1 [Example 221] | 1 to 10 µM | 10 to 25 µM
O=C(C(=Cc1ccc(O)cc1)SCc1ccc(Cl)cc1)c1ccc(Cl)cc1 [Example 222] | 1 to 10 µM | 10 to 25 µM

SMILES | IC50 [1] | IC50 [2]
CSc1ccc(C=C(SCc2ccc(Cl)cc2)C(=O)c2ccc(C(=O)O)cc2)cc1 [Example 223] | > 100 µM | > 100 µM
CSc1ccc(C=C(SCc2ccc(Cl)cc2)C(=O)c2ccc(Cl)cc2)cc1 [Example 224] | 1 to 10 µM | 25 to 50 µM
COc1ccc(C=C(SCc2ccc(Cl)cc2)C(=O)c2ccc(Br)cc2)cc1 [Example 225] | 1 to 10 µM | 10 to 25 µM
COc1ccc(C=C(SCc2ccc(Cl)cc2)C(=O)c2ccc(Br)cc2)cc1 [Example 226] | 1 to 10 µM | 25 to 50 µM
COc1ccc(C=C(SCc2ccc(Cl)cc2)C(=O)c2ccc(C(=O)O)cc2)cc1 [Example 227] | 25 to 50 µM | 25 to 50 µM
COc1ccc(C=C(SCc2ccc(Cl)cc2)C(=O)c2ccc(Cl)cc2)cc1 [Example 228] | 1 to 10 µM | 10 to 25 µM
Cc1ccc(C=C(SCc2ccc(Cl)cc2)C(=O)c2ccc(Br)cc2)s1 [Example 229] | 50 to 100 µM | > 100 µM
Cc1ccc(C=C(SCc2ccc(Cl)cc2)C(=O)c2ccc(Cl)cc2)s1 [Example 230] | 50 to 100 µM | 50 to 100 µM
Cc1ccc(C=C(SCc2ccc(Cl)cc2)C(=O)c2ccc([N+](=O)[O-])cc2)s1 [Example 231] | 25 to 50 µM | 25 to 50 µM
COc1cc(OC)c(C=C(SCc2ccc(F)cc2)C(=O)c2ccc(Br)cc2)c(OC)c1 [Example 233] | 1 to 10 µM | 1 to 10 µM
COc1cc(OC)c(C=C(SCc2ccc(F)cc2)C(=O)c2ccc(Cl)cc2)c(OC)c1 [Example 234] | 10 to 25 µM | 10 to 25 µM
Cc1ccc(C)c(C=C(SCc2ccc(F)cc2)C(=O)c2ccc(Br)cc2)c1 [Example 235] | 50 to 100 µM | 1 to 10 µM
O=C(C(=Cc1ccccc1OCc1ccccc1)SCc1ccc(F)cc1)c1ccc(Br)cc1 [Example 236] | 1 to 10 µM | 1 to 10 µM
COc1ccccc1C=C(SCc1ccc(F)cc1)C(=O)c1ccc(Cl)cc1 [Example 240] | 1 to 10 µM | 10 to 25 µM
Cc1cc(C)cc(C=C(SCc2ccc(F)cc2)C(=O)c2ccc(Br)cc2)c1 [Example 242] | 1 to 10 µM | 10 to 25 µM
COc1ccc(C=C(SCc2ccc(F)cc2)C(=O)c2ccc(C(=O)O)cc2)cc1O [Example 244] | 1 to 10 µM | 10 to 25 µM
Cc1ccsc1C=C(SCc1ccc(F)cc1)C(=O)c1ccc(Br)cc1 [Example 246] | > 100 µM | 50 to 100 µM
CCN(CC)CCNC(=O)c1c(C)[nH]c(C=C(SCc2ccc(F)cc2)C(=O)c2ccc(C(=O)O)cc2)c1C [Example 248] | 50 to 100 µM | 50 to 100 µM
CN(C)c1ccc(C=C(SCc2ccc(F)cc2)C(=O)c2ccc(Br)cc2)cc1 [Example 249] | 1 to 10 µM | 25 to 50 µM
CN(C)c1ccc(C=C(SCc2ccc(F)cc2)C(=O)c2ccc(C(=O)O)cc2)cc1 [Example 250] | 10 to 25 µM | 25 to 50 µM
O=C(O)c1ccc(C(=O)C(=Cc2ccc(Br)c([N+](=O)[O-])c2)SCc2ccc(F)cc2)cc1 [Example 252] | ≤ 1 µM | 1 to 10 µM
O=C(C(=Cc1ccc(Br)cc1)SCc1ccc(F)cc1)c1ccc(Br)cc1 [Example 253] | 1 to 10 µM | 25 to 50 µM

SMILES | IC50 [1] | IC50 [2]
O=C(C(=Cc1ccc(Br)cc1)SCc1ccc(F)cc1)c1ccc(Cl)cc1 [Example 254] | 1 to 10 µM | 10 to 25 µM
O=C(O)c1ccc(C(=O)C(=Cc2ccc(Cl)c([N+](=O)[O-])c2)SCc2ccc(F)cc2)cc1 [Example 255] | ≤ 1 µM | 1 to 10 µM
O=C(C(=Cc1ccc(Cl)cc1)SCc1ccc(F)cc1)c1ccc(Cl)cc1 [Example 256] | 1 to 10 µM | 10 to 25 µM
CCOc1ccc(C=C(SCc2ccc(F)cc2)C(=O)c2ccc(Br)cc2)cc1OC [Example 257] | 1 to 10 µM | 50 to 100 µM
O=C(C(=Cc1ccc(F)cc1C(F)(F)F)SCc1ccc(F)cc1)c1ccc(Br)cc1 [Example 260] | 10 to 25 µM | 10 to 25 µM
O=C(O)c1ccc(C(=O)C(=Cc2ccc(O)c([N+](=O)[O-])c2)SCc2ccc(F)cc2)cc1 [Example 262] | 50 to 100 µM | > 100 µM
COc1ccc(C=C(SCc2ccc(F)cc2)C(=O)c2ccc(Br)cc2)cc1 [Example 265] | 1 to 10 µM | 25 to 50 µM
O=C(C(=Cc1c[nH]c2ccc(Cl)cc12)SCc1ccc(F)cc1)c1ccc(Br)cc1 [Example 267] | 1 to 10 µM | 1 to 10 µM
Cc1ccc(CSC(=Cc2ccc(O)c(O)c2O)C(=O)c2ccc(Cl)cc2)cc1 [Example 270] | 50 to 100 µM | 50 to 100 µM
Cc1ccc(CSC(=Cc2cccc(Cl)c2Cl)C(=O)c2ccc(Cl)cc2)cc1 [Example 271] | 25 to 50 µM | 25 to 50 µM
Cc1ccc(CSC(=Cc2c(O)cc(O)cc2O)C(=O)c2ccc(Cl)cc2)cc1 [Example 272] | 50 to 100 µM | 50 to 100 µM
Cc1ccc(CSC(=Cc2cc(C)ccc2C)C(=O)c2ccc(Cl)cc2)cc1 [Example 273] | 10 to 25 µM | 10 to 25 µM
Cc1ccc(CSC(=Cc2ccccc2OCc2ccccc2)C(=O)c2ccc(Cl)cc2)cc1 [Example 274] | 1 to 10 µM | 1 to 10 µM
Cc1ccc(CSC(=Cc2cc([N+](=O)[O-])ccc2F)C(=O)c2ccc(Cl)cc2)cc1 [Example 276] | 1 to 10 µM | 1 to 10 µM
Cc1ccc(CSC(=Cc2ccccc2F)C(=O)c2ccc(Br)cc2)cc1 [Example 277] | 1 to 10 µM | 10 to 25 µM
COc1ccccc1C=C(SCc1ccc(C)cc1)C(=O)c1ccc(Cl)cc1 [Example 279] | 10 to 25 µM | 10 to 25 µM
Cc1ccc(CSC(=Cc2ccc[nH]2)C(=O)c2ccc(Cl)cc2)cc1 [Example 280] | 1 to 10 µM | 25 to 50 µM
Cc1ccc(CSC(=Cc2cc(Cl)cc(Cl)c2)C(=O)c2ccc(Cl)cc2)cc1 [Example 281] | 10 to 25 µM | 10 to 25 µM
Cc1ccc(CSC(=Cc2sccc2C)C(=O)c2ccc(Cl)cc2)cc1 [Example 283] | 10 to 25 µM | 10 to 25 µM
CCN(CC)CCNC(=O)c1c(C)[nH]c(C=C(SCc2ccc(C)cc2)C(=O)c2ccc(C(=O)O)cc2)c1C [Example 284] | 50 to 100 µM | 50 to 100 µM
Cc1ccc(CSC(=Cc2ccc(N(C)C)cc2)C(=O)c2ccc(Cl)cc2)cc1 [Example 285] | 10 to 25 µM | 10 to 25 µM
Cc1ccc(CSC(=Cc2ccc(Br)cc2)C(=O)c2ccc(Cl)cc2)cc1 [Example 286] | 1 to 10 µM | 10 to 25 µM

From patent publication US8808702B2, “Sulfide, sulfoxide and sulfone chalcone analogues, derivatives thereof and therapeutic uses thereof” (Temple University-of the Commonwealth System of Higher …, priority 2006, dated 2014)
